The nature of data set [1]: Inhibition of recombinant N-terminal His6 tagged SUMO-fused Trypanosoma brucei brucei TC221 TAO MTS deletion mutant expressed in Escherichia coli FN102 preincubated for 2 mins followed by ubiquinol-1 addition measured over 2 mins by double beam-dual wavelength UV-spectrophotometry.
Data set [2] in a line: Selectivity index, ratio of CC50 for HEK cells to EC50 for bloodstream trypomastigote stage of wild-type Trypanosoma brucei brucei Lister 427. It counts as toxicity. The note with it: human, read-out: Ratio CC50/EC50.
Data set [3] relates to Trypanosoma brucei brucei. The data set can be described thus: Anti-parasitic activity against bloodstream trypomastigote stage of Trypanosoma brucei brucei with AQP2/3-dd knock out after 48 hrs by resazurin-based assay. It counts as functional, organism-based.
Data set [4] is described as follows: Resistance factor, ratio of EC50 for bloodstream trypomastigote stage of pentamidine/diminazene/melaminophenyl arsenical resistant Trypanosoma brucei B48 to EC50 for bloodstream trypomastigote stage of wild-type Trypanosoma brucei brucei Lister 427. The class given is functional.
Data set [5] deals with Trypanosoma brucei brucei. The experiment in a line: Resistance factor, ratio of EC50 for bloodstream trypomastigote stage of wild-type Trypanosoma brucei brucei Lister 427 in presence of 5 mM glycerol to EC50 for bloodstream trypomastigote stage of wild-type Trypanosoma brucei brucei Lister 427. The class given is functional.
Data set [6] concerns Trypanosoma brucei brucei. The experiment in a line: Resistance factor, ratio of EC50 for bloodstream trypomastigote stage of Trypanosoma brucei brucei with AQP2/3-dd knock out to EC50 for bloodstream trypomastigote stage of wild-type Trypanosoma brucei brucei Lister 427. The class given is functional.
Data set [7] concerns Trypanosoma brucei brucei. The data set can be described thus: Anti-parasitic activity against bloodstream trypomastigote stage of wild-type Trypanosoma brucei brucei Lister 427 after 48 hrs in presence of 5 mM glycerol by resazurin-based assay. The note with it: Lister 427, 48 h. It counts as functional, organism-based. Background: The colour change of resazurin is a common sign of viable cells or microbes.

Data set [8] has as its system Trypanosoma brucei brucei. The experiment in a line: Anti-parasitic activity against bloodstream trypomastigote stage of Trypanosoma brucei brucei with AQP triple knock out after 48 hrs by resazurin-based assay. The class given is functional, organism-based.
Data set [9] concerns Trypanosoma brucei brucei. The data set can be described thus: Resistance factor, ratio of EC50 for bloodstream trypomastigote stage of Trypanosoma brucei brucei AQP triple knock out to EC50 for bloodstream trypomastigote stage of wild-type Trypanosoma brucei brucei Lister 427. It counts as functional.
Data set [10] can be described thus: Cytotoxicity against HEK cells assessed as reduction in cell viability after 30 hrs by resazurin-based assay. Particulars: human.
The test system of the next data set is Trypanosoma congolense. The data set can be described thus: Anti-parasitic activity against bloodstream form of Trypanosoma congolense IL3000 after 48 hrs by resazurin-based assay. It counts as functional, organism-based. The note with it: IL3000, 48 h.
Data set [11] is described as follows: Cytotoxicity against HFF cells assessed as reduction in cell viability after 30 hrs by resazurin-based assay. The note with it: human.
In another data set the test system is Trypanosoma brucei. The data set can be described thus: Anti-parasitic activity against bloodstream trypomastigote stage of pentamidine/diminazene/melaminophenyl arsenical resistant Trypanosoma brucei B48 after 48 hrs by resazurin-based assay. The class given is functional, organism-based. Particulars: B48, 48 h.
The nature of data set [12]: Selectivity index, ratio of CC50 for HFF cells to EC50 for bloodstream trypomastigote stage of wild-type Trypanosoma brucei brucei Lister 427. It counts as toxicity. Particulars: human, read-out: Ratio CC50/EC50.
The subject of data set [13] is Trypanosoma brucei brucei. The data set can be described thus: Anti-parasitic activity against bloodstream trypomastigote stage of wild-type Trypanosoma brucei brucei Lister 427 after 48 hrs by resazurin-based assay. The class given is functional, organism-based. The note with it: Lister 427, 48 h.
The nature of data set [14]: Selectivity index, ratio of CC50 for HFF cells to EC50 for bloodstream form of Trypanosoma congolense IL3000. It counts as toxicity. Particulars: human, read-out: Ratio CC50/EC50.

pEC50, pIC50: −log10 of the molar value. A value given as a limit tells only on which side of the number the result lay.

One may read the pIC50 as the IC50 on a negative log10 scale, so that one unit is a factor of ten. The pEC50 is the EC50 on a negative log10 scale, so that one unit is a factor of ten. What is called CC50 is the concentration that lowers cell viability or growth by half. As to `O=COCCCCCCCCCCOC(=O)c1ccc(O)cc1O`, the pIC50 in data set [1] was 6.82. The selectivity ratio in [2] was greater than 12. Further, the negative logarithm of the EC50 (pEC50) is 4.56 in data set [3], 4.76 in data set [7] and 4.81 in [8]. The Ratio EC50 worked out at 0.69 in data set [4], 0.55 in data set [5], 0.86 in data set [6] and 0.49 in data set [9]. In data set [10], the CC50 at 30 h is greater than 400 µM.

Take `O=C(OCCCCCCCCCCCCCCBr)c1ccc(O)cc1F`: the pEC50 in the data set on Trypanosoma congolense is less than 4.30; in [3] it was 5.17; with Trypanosoma brucei it was 4.76; in [7], 5.14; in [8], 5.15; in data set [13], 4.83. The pIC50 in data set [1] is 7.52. Besides, the CC50 at 30 h in data set [11] was greater than 200 µM. The Ratio EC50 in data set [4] was 1.2; in data set [5], 0.49; in data set [6] it was 0.46; in data set [9] it was 0.48. Besides, the selectivity ratio in data set [12] was greater than 13.

`O=C(NO)c1ccccc1O` [SALICYLHYDROXAMIC ACID]: the negative-log EC50 (pEC50) in data set [3] is 4.50; in [8] it was 5.05.

Regarding `O=C(OCCCCBr)c1ccc(O)cc1O`, the pIC50 in [1] was 6.35. Besides, the 50% cytotoxic concentration (CC50) at 30 h in data set [11] is greater than 200 µM. Also, the negative logarithm of the EC50 (pEC50) (in [3]; in the data set with Trypanosoma brucei; in data set [7]; in [8]; in data set [13]) was 3.40 each time.

As for `O=C(OCCCCCCCCCCCCCCCC[P+](c1ccccc1)(c1ccccc1)c1ccccc1)c1ccc(O)cc1O`, the pIC50 in [1] was less than 5.30.

`O=C(OCCCCCCCCCCCCCCOC(=O)c1ccc(O)cc1O)c1ccc(O)cc1O`: the negative logarithm of the EC50 (pEC50) is less than 4.00 in the data set on Trypanosoma congolense; 4.55 in [3]; 4.44 in the data set on Trypanosoma brucei; 4.80 in [7]; 4.83 in data set [8]; 4.38 in data set [13]. The negative logarithm of the IC50 (pIC50) in [1] is 7.80. Besides, the selectivity ratio in data set [2] was greater than 9. In addition, the Ratio EC50 in [4] was 0.87; in [5] it was 0.38; in [6] it was 0.67; in [9], 0.35. Besides, in data set [10], the cytotoxic concentration (CC50) at 30 h is greater than 400 µM.

`O=C(OCCCCCCCCCCCCCCCCBr)c1ccc(O)cc1O`: in [1], the negative-log IC50 (pIC50) was 7.91. Also, the selectivity ratio in [2] is greater than 8. The pEC50 in data set [3] was 4.84; in data set [7] it was 4.95; in [8], 5.29. Moreover, the Ratio EC50 in data set [4] was found to be 1.07; in [5], 0.24; in data set [6], 0.32; in [9], 0.11. Also, the CC50 at 30 h in data set [10] was greater than 400 µM.

Regarding `O=C(OCCCCCCCCCCCCCC[P+](c1ccccc1)(c1ccccc1)c1ccccc1)c1ccc(O)cc1O`, the pIC50 in data set [1] is 5.84.

In the case of `Cc1cc(O)cc(O)c1C(=O)O` [ORSELLINIC ACID], in [1], the negative logarithm of the IC50 (pIC50) is 3.84.

In the case of `O=COCCCCCCCCCCCCCCOc1ccc(C=O)c(O)c1`, the pIC50 in data set [1] was 6.48. For the same molecule, the CC50 at 30 h in data set [11] was greater than 200 µM. The pEC50 in [3] was 5.85; in the data set with Trypanosoma brucei, 5.44; in [7], 5.74; in [8] it was 5.74; in data set [13], 5.42. Besides, the Ratio EC50 in data set [4] stood at 1; in data set [5], 0.48; in data set [6], 0.38; in data set [9] it was 0.48. Besides, in data set [12], the selectivity ratio is greater than 52.

On to `O=C(O)c1ccc(O)cc1O` [2,4-DIHYDROXYBENZOIC ACID], for which the pIC50 in [1] was 3.94. Also, the pEC50 in data set [8] is 4.78. In addition, in data set [9], the “Ratio EC50” value is recorded as 0.96.

Take `Cc1cc(O)ccc1C(=O)OCCCCCCCCCCCCCCOC(=O)c1ccc(O)cc1C`: the pEC50 (with Trypanosoma congolense; in data set [3]; in the data set on Trypanosoma brucei; in data set [7]; in [8]; in data set [13]) was 3.40 in each case. The pIC50 in data set [1] was 7.89. For the same molecule, the CC50 at 30 h in data set [11] was greater than 200 µM.

For `N=C(N)c1ccc(OCCCCCOc2ccc(C(=N)N)cc2)cc1` [PENTAMIDINE], the negative-log EC50 (pEC50) is 7.33 in [3], 7.19 in data set [8] and 8.48 in data set [13]. Further, the Ratio EC50 is 285 in [4], 1.14 in data set [5], 14.1 in [6] and 19.2 in [9].

In the case of `O=Cc1ccc(OCCCCCCCCCCCCCC[n+]2cccc3ccccc32)cc1O.[Br-]`, the negative logarithm of the EC50 (pEC50) was 5.68 in the data set on Trypanosoma congolense; 6.02 in [3]; 5.63 in the data set on Trypanosoma brucei; 5.91 in data set [7]; 5.97 in data set [8]; 5.76 in data set [13]. Moreover, in data set [1], the negative logarithm of the IC50 (pIC50) was 5.91. The CC50 at 30 h in data set [11] was greater than 200 µM. Besides, the Ratio EC50 worked out at 1.3 in [4], 0.7 in data set [5], 0.54 in data set [6] and 0.62 in data set [9]. Also, the selectivity ratio in data set [12] is greater than 114; in data set [14] it was greater than 95.

On to `O=C(OCCCCCCCCCCCCCCCC[n+]1cccc2ccccc21)c1ccc(O)cc1O`, for which, in [1], the pIC50 is less than 5.30.

Regarding `Cc1cc(O)cc(O)c1C(=O)OCCCCCCCCCCCCCCBr`, the negative logarithm of the EC50 (pEC50) is less than 4.00 in the data set on Trypanosoma congolense; 5.14 in data set [3]; 4.81 in the data set on Trypanosoma brucei; 5.11 in data set [7]; 5.17 in [8]; 4.84 in data set [13]. The pIC50 in data set [1] is 8.15. Also, the CC50 at 30 h in [11] was greater than 200 µM. Also, the Ratio EC50 turned out to be 1.1 in data set [4], 0.53 in data set [5], 0.5 in data set [6] and 0.47 in data set [9]. In addition, the selectivity ratio in [12] is greater than 13.

Consider `Cc1cc(O)ccc1C(=O)OCCCCCCCCCCCCCCBr`, for which, in data set [1], the negative logarithm of the IC50 (pIC50) is 8.15. Further, the half-maximal cytotoxic concentration (CC50) at 30 h in data set [11] was greater than 200 µM. Also, the pEC50 in data set [3] is 5.15; in the data set with Trypanosoma brucei it was 4.84; in data set [7], 5.12; in [8] it was 5.14; in [13], 4.84. Besides, the Ratio EC50 in data set [4] is 1; in data set [5], 0.52; in data set [6], 0.49; in data set [9], 0.5. In [12], the selectivity ratio is greater than 13.

As to `Cc1cc(O)ccc1C(=O)O`, the pIC50 in data set [1] was 3.95.

`O=Cc1ccc(OCCCCCCCCCCCCCCOc2ccc(C=O)c(O)c2)cc1O`: the pEC50 (in the data set with Trypanosoma congolense; in [3]; with Trypanosoma brucei; in data set [7]; in [8]; in data set [13]) was 3.40 throughout. For the same molecule, the pIC50 in data set [1] was 6.62. Besides, the CC50 at 30 h in [11] is greater than 200 µM.

`O=C(OCCCCCCCCCCCCCCBr)c1ccc(O)cc1O`: the negative logarithm of the IC50 (pIC50) in data set [1] is 7.97.

Take `O=C(O)c1ccc(O)cc1F`: the negative-log IC50 (pIC50) in data set [1] was 3.94.

As for `O=Cc1ccc(OCCCCCCCCCCCCCCBr)cc1O`, the pEC50 in the data set with Trypanosoma congolense was 4.37; in data set [3] it was 5.08; in the data set with Trypanosoma brucei, 4.81; in data set [7], 4.97; in data set [8], 5.10; in data set [13], 4.75. The negative-log IC50 (pIC50) in [1] was 7.14. Besides, the CC50 at 30 h in data set [11] was greater than 200 µM. In addition, the Ratio EC50 in [4] is 0.9; in [5], 0.61; in [6], 0.48; in [9], 0.45. For the same molecule, the selectivity ratio in data set [12] is greater than 11; in data set [14], greater than 4.6.

Take `O=C(OCCCCCCBr)c1ccc(O)cc1O`: the pEC50 was 4.14 in the data set on Trypanosoma congolense; 4.94 in data set [3]; 4.69 with Trypanosoma brucei; 4.92 in [7]; 4.92 in data set [8]; 4.75 in [13]. The pIC50 in [1] is 6.62. Besides, the CC50 at 30 h in data set [11] is greater than 200 µM. For the same molecule, the Ratio EC50 came out at 1.2 in [4], 0.68 in data set [5], 0.65 in [6] and 0.68 in data set [9]. In addition, the selectivity ratio is greater than 11 in [12] and greater than 2.7 in data set [14].

Take `N=C(N)c1ccc(/N=N/Nc2ccc(C(=N)N)cc2)cc1` [DIMINAZENE]: the pEC50 with Trypanosoma congolense was 6.70. The Ratio EC50 in data set [4] was found to be 12.

The values above are taken from ChEMBL document CHEMBL4229345, “Inhibition of trypanosome alternative oxidase without its N-terminal mitochondrial targeting signal (ΔMTS-TAO) by cationic and non-cationic 4-hydroxybenzoate and 4-alkoxybenzaldehyde derivatives active against T. brucei and T. congolense” (Eur J Med Chem, 2018).
